# Results: publication PMC6176987, “Correction of cognitive deficits in mouse models of Down syndrome by a pharmacological inhibitor of DYRK1A” (Disease Models & Mechanisms, 2018)
# What was measured:
# DYRK1A [1] = biological target: T1, DYRK1A (Mus musculus, UniProt Q61214); assay: In vitro kinase activity of DYRK1A immunopurified from mouse brains; assay type: biochemical; conditions: DYRK1A from untreated wt, Tg(Dyrk1a) and Ts65Dn brains, increasing concentrations
# T1 construct: DYRK1A was purified from brain extracts by immunoprecipitation; from tissue; host or cells: mouse brain (wt, Tg(Dyrk1a), Ts65Dn)
# DYRK1A [2] = assay: Brain DYRK1A protein expression by western blotting after treatment; assay type: in vivo, mouse; conditions: 19 days daily i.p., transgenic and wt brains
# Description: Brains were obtained from mice and snap-frozen until further use. Then tissues were weighed, homogenized and sonicated in 1 ml lysis buffer (60 mM β-glycerophosphate, 15 mM p-nitrophenylphosphate, 25 mM Mops pH 7.2, 15 mM EGTA, 15 mM MgCl2, 2 mM dithiothreitol, 1 mM sodium orthovanadate, 1 mM sodium fluoride, 1 mM phenylphosphate disodium and protease inhibitor cocktail) per g of material. Homogenates were centrifuged for 15 min at 17,000 g and 4°C. The supernatant was recovered and assayed for protein content (Bio-Rad, France). The proteins were separated by 10% NuPAGE pre-cast Bis-Tris polyacrylamide mini gel electrophoresis (Invitrogen, France) with MOPS-SDS running buffer. Proteins were transferred to 0.45-µm nitrocellulose filters (Schleicher and Schuell, Germany). They were blocked with 5% low-fat milk in Tris-buffered […]/Tween 20, and incubated overnight at 4°C with antibodies. Anti-DYRK1A (H00001859-M01; 1:1000) and anti-GSK-3α/β (KAM-ST002E; 1:1000) were obtained from Interchim (France) and Stressgen (France), respectively. Appropriate secondary antibodies conjugated to horseradish peroxidase (Bio-Rad) were added to visualize the proteins using the enhanced chemiluminescence reaction (ECL, Amersham, France).
# Dp1Yey mice = assay: Novel object recognition (NOR) test in Dp1Yey mice; assay type: in vivo, mouse; conditions: daily i.p. treatment for 19 days
# Description: (§1) Behavioural studies were conducted in 12- to 20-week-old male animals. All assessments were scored blind to genotype and treatment, as recommended by the ARRIVE guidelines ([Karp et al., 2015]; [Kilkenny et al., 2010]). […] The final formulation was prepared just prior to use as a 2 mg/ml solution diluted in PEG300/water (50/45), to reach a final DMSO/PEG300/water 5/50/45 (v/v/v) mix. Treated animals received a daily dose (5, 12 or 19 days) of this formulation by i.p. injection of 20 mg/kg/day. Nontreated animals received the same formulation without L41.
# (§2) The NOR task is based on the innate tendency of rodents to differentially explore a novel object over a familiar one ([Ennaceur and Delacour, 1988]). Day 1 was a habituation session. Mice freely explored the apparatus, a white circular arena (53 cm diameter) placed in a dimly lit testing room (40 lux). On day 2, the acquisition phase, mice were free to explore two identical objects for 10 min. Mice were then returned to their home cage for a 24 h retention interval. […] Object exploration was manually scored and defined as the orientation of the nose to the object at a distance <1 cm. For the retention phase, the percent of time spent exploring familiar versus novel objects was calculated to assess memory performance.
# [3] = L41 levels in brain nuclear and cytoplasmic fractions; conditions: mouse, in vivo
# Description: Thus, DYRK1A overexpression in the transgenic animals' brains appears to be limited to the cytoplasmic fraction, corresponding to the subcellular distribution of overexpressed DYRK1A (Fig. 7A,B). Accordingly, more L41 is detected in the cytoplasmic fraction from transgenic animals compared with their control littermates.
# Nuclear, cytosolic and synaptosomal subcellular fractionation of brain tissue was performed with the Syn-PER™ and ProteoExtract® Tissue Dissociation Buffer Kit and Subcellular Proteome Extraction Kit following the instructions of the manufacturer. Fractions were analysed by SDS-PAGE and WB with specific antibodies.
# DYRK1A [4] = biological target: T1, DYRK1A; assay: Brain DYRK1A catalytic activity after treatment, Ts65Dn mice; assay type: in vivo; conditions: 19 days daily i.p., normalized to GSK-3α/β activity
# Description: (§3) Protein kinase assays to measure the catalytic activity of DYRK1A in the brains of the animals treated with or without drugs were performed as follows: frozen half brains were homogenized in lysis buffer (1.2 ml/half brain) using Precellys® homogenizer tubes. After centrifugation at 2800 g for 2×15 s, 1 mg brain extract was incubated with 2 µg DYRK1A (H00001859 M01, Interchim) or GSK3-β (MBS8508391, Emelca Bioscience, France) antibodies at 4°C for 1 h under gentle rotation. Then, 20 µl protein G agarose beads (Thermo Fisher Scientific, France), previously washed three times with bead buffer (50 mM Tris pH 7.4, 5 mM NaF, 250 mM NaCl, 5 mM EDTA, 5 mM EGTA, 0.1% Nonidet P-40 and protease inhibitor cocktail from Roche, France), were added to the mix and gently rotated at 4°C for 30 min. After a 1 min spin at 10,000 g and removal of the supernatant, the pelleted immune complexes were washed three times with bead buffer, and a last time with Buffer C (60 mM β-glycerophosphate, 30 mM p-nitrophenolphosphate, 25 mM Mops pH 7.2, 5 mM EGTA, 15 mM MgCl2, 2 mM dithiothreitol, 0.1 mM sodium orthovanadate, 1 mM phenylphosphate, protease inhibitor cocktail). DYRK1A or GSK-3 immobilized on beads were assayed in buffer C as described in the Supplementary Materials and Methods with Woodtide ([…]) (1.5 µg/assay) or GSK3-tide ([…]pSED-EEE, where pS stands for phosphorylated serine) as substrates.
# CLK1 = CLK1 (Mus musculus, UniProt P22518); assay: Recombinant protein kinase assay, CLK1; assay type: biochemical
# CLK1, sequence (P22518 whole entry): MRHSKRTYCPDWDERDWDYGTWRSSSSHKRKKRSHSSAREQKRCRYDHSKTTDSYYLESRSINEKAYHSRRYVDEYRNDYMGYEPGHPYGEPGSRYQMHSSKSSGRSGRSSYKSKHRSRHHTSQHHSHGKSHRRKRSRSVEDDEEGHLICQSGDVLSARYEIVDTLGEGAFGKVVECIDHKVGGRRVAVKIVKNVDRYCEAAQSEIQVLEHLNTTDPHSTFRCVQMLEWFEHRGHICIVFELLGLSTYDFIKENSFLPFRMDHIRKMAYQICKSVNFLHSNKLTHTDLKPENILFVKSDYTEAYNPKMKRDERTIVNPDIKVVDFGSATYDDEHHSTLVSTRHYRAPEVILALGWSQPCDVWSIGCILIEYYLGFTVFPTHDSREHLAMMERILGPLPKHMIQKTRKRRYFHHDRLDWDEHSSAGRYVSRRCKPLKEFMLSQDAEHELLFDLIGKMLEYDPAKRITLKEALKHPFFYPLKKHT
# wt mice = assay: Novel object recognition (NOR) test in wt mice; assay type: in vivo, mouse; conditions: 20 mg/kg daily i.p., 5, 12 or 19 days
# Description: as §1, §2
# CDK9/cyclin T = biological target: T2, CDK9/cyclin T (Homo sapiens, UniProt P50750); assay: Recombinant protein kinase assay, CDK9/cyclin T; assay type: biochemical; conditions: 15 µM ATP
# T2 construct: made in house; host or cells: insect cells
# T2 sequence (P50750 whole entry): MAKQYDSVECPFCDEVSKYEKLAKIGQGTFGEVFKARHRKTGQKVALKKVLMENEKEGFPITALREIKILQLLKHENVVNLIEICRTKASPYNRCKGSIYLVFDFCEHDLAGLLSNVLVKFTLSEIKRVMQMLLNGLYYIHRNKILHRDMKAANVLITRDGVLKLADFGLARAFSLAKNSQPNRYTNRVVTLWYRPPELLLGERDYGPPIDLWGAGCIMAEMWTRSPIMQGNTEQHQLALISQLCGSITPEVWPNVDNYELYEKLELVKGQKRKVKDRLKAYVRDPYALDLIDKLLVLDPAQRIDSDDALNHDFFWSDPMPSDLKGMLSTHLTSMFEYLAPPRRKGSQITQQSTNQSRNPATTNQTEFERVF
# T2 sequence (O60563 whole entry partner): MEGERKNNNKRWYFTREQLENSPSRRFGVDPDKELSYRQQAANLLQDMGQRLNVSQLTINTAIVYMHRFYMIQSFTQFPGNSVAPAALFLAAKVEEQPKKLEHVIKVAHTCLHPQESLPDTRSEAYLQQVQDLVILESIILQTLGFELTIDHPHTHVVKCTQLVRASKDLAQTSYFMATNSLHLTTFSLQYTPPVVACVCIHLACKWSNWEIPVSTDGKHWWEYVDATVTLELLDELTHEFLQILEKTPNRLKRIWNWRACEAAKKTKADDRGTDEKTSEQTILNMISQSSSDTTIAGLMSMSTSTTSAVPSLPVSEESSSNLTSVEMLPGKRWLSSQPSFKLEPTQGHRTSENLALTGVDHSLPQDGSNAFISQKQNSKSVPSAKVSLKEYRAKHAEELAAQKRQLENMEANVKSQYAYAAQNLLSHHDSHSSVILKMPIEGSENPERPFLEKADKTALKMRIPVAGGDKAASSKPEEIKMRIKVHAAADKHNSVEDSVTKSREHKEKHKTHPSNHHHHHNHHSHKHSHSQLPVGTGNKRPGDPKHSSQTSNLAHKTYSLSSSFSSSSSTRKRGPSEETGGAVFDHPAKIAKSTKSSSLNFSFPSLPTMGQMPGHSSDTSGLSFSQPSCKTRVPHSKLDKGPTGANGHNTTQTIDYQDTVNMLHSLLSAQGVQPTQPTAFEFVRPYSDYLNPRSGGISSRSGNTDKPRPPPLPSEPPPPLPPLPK
# CDK2/cyclin A = CDK2/cyclin A (Homo sapiens, UniProt P24941); assay: Recombinant protein kinase assay, CDK2/cyclin A; assay type: biochemical; conditions: 15 µM ATP
# Tg(Dyrk1a) mice = assay: Novel object recognition (NOR) test in Tg(Dyrk1a) mice; assay type: in vivo, mouse; conditions: for Recovery in NOR test: 20 mg/kg daily i.p., 24 h retention delay
# DYRK1A [5] = biological target: T1, DYRK1A; assay: Brain DYRK1A catalytic activity after treatment, wt mice; assay type: in vivo; conditions: 19 days daily i.p.
# Description: as §3
smiles,measurement,setting,value
O=C1NC(Nc2ccccc2)=N/C1=C\c1ccc2c(c1)OCO2 [L41],In vitro inhibition of brain DYRK1A,DYRK1A [1],almost fully inhibited
same,Effect on expression of DYRK1A and GSK-3α/β protein,DYRK1A [2],no effect
same,NOR test outcome,Dp1Yey mice,rescue
same,"L41 level in brain cytoplasmic fraction, Tg(Dyrk1a) vs wt",[3],significantly increased
same,"L41 levels in brain nuclear fractions, Tg(Dyrk1a) vs wt",[3],identical L41 levels
same,Reduction of brain DYRK1A activity,DYRK1A [4],~30%
same,IC50,CLK1,0.023 µM
same,Effect on NOR performance of wt animals,wt mice,no effect
same,IC50,CDK9/cyclin T,> 10 µM
same,IC50,CDK2/cyclin A,> 10 µM
same,Recovery in NOR test,Tg(Dyrk1a) mice; 5 days,only marginally
same,Recovery in NOR test,Tg(Dyrk1a) mice; 12 days,consistently
same,Recovery in NOR test,Tg(Dyrk1a) mice; 19 days,fully observed
same,Persistence of NOR rescue,Tg(Dyrk1a) mice; 24 h after the last day of the 19 day treatment,rescuing effect was detectable
same,Persistence of NOR rescue,Tg(Dyrk1a) mice; 48 h after the last day of the 19 day treatment,no rescue
same,Effect on brain DYRK1A activity,DYRK1A [5],did not reduce
